What was measured:
[1] = target: T1, 5HT1A receptor (Rattus norvegicus, UniProt P19327); experiment: 5-HT1A (serotonin) binding test; conditions: binding to the 5HT1A receptor; read-out: 5HT1A (IC50 in nmol/l)
T1 construct: from tissue; host or cells: rat brain (hippocampal) membranes
T1 sequence (P19327 1-422): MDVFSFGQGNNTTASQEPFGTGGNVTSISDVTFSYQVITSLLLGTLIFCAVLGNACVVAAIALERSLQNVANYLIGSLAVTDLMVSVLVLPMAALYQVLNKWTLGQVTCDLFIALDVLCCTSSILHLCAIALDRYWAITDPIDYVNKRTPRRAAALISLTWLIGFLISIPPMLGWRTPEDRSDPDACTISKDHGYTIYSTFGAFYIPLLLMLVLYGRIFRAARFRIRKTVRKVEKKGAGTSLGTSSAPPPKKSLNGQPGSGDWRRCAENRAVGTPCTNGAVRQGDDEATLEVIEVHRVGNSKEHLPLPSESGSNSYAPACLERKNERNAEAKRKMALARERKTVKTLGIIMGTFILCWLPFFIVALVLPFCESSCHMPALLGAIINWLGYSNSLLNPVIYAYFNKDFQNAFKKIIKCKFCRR
Protocol: Binding properties of the compounds of the formula I can be determined, for example, by the 5-HT1A (serotonin) binding test (Matzen et al., J. Med. Chem., 43 (2000), 1149-1157, in particular page 1156 with reference to Eur. J. Pharmacol.: 140 (1987), 143-155).
The binding properties to the 5HT1A receptor was determined with the aid of the 5-HT1A (serotonin) binding test (Matzen et al., J. Med. Chem., 43 (2000), 1149-1157, in particular page 1156 with reference to Eur. J. Pharmacol.: 140 (1987), 143-155).

[2] = target: T2, serotonin reuptake (Rattus norvegicus, UniProt P31652); experiment: Serotonin reuptake inhibition by synaptosomal uptake inhibition (Wong et al.); assay type: biochemical; conditions: read-out: SSRI (IC50 in nmol/l)
T2 construct: from tissue
From the text: For ex-vivo detection of serotonin reuptake inhibition, use can be made, for example, of synaptosomal uptake inhibition (Wong et al., Neuropsychopharmacol. 8 (1993), 23-33) and p-chloroamphetamine antagonism (Fuller et al., J. Pharmacol. Exp. Ther. 212 (1980), 115-119).
The serotonin reuptake inhibition was investigated with the aid of synaptosomal uptake inhibition by the method of Wong et al. (Neuropsycho-pharmacol. 8 (1993), 23-33).

[3] = target: 5-HT4 receptor (UniProt O70528); experiment: 5-HT4 receptor binding test according to Grossman et al.; conditions: binding to the 5-HT4 receptor; read-out: 5HT4 (IC50 in nmol/l)
From the text: For determination of the binding properties of the compounds of the formula I to the 5-HT4 receptor, use can be made of the test according to Grossman et al. (Grossman et al., Br. J. Pharmacol. 109, (1993), 618-24).
In order to determine the binding properties to the 5-HT4 receptor, use was made of the test in accordance with Grossman et al. (Grossman et al., Br. J. Pharmacol. 109, (1993), 618-24).

T2 sequence (P31652 whole entry): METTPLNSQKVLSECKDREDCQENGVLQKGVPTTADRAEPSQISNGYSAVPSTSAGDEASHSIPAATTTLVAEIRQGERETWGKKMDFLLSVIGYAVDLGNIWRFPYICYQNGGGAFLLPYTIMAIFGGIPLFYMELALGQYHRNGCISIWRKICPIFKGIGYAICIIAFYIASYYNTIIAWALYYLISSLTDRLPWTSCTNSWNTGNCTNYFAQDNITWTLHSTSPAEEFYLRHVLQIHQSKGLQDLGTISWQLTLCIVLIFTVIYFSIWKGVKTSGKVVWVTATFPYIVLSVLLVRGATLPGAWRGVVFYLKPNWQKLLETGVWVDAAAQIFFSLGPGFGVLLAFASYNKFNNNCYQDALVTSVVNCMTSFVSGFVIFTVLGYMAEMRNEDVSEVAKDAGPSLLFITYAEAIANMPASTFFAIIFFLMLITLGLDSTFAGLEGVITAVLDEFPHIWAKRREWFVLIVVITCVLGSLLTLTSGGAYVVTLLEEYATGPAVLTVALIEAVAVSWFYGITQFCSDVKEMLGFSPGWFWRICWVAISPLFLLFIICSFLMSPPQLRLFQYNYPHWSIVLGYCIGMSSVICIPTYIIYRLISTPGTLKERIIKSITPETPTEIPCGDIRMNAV

| SMILES | melting point | IC50 [1] | IC50 [2] | IC50 [3] |
| --- | --- | --- | --- | --- |
| N#Cc1ccc2[nH]cc(CCCCNCC3CCOc4ccccc4O3)c2c1 (stereo not shown) (hydrate or solvate) [EMD 87322] | 78 °C | – | – | – |
| Cc1ccc2c(c1)OCC(NCCCCc1c[nH]c3ccc(C#N)cc13)CO2 (stereo not shown) [EMD 85350, 3-{4-[7-methyl-3,4-dihydro-2H-1,5-benzodioxepin-3-ylamino]butyl}indole-5-carbonitrile] | – | 3 nmol/L | 4 nmol/L | – |
| N#Cc1ccc2[nH]cc(CCCCNCC3CCOc4ccccc4O3)c2c1 (stereo not shown) [EMD 87322] | – | 4 nmol/L | 0.6 nmol/L | 8.4 nmol/L |

The next lines start with the values.

| melting point | IC50 [1] | IC50 [2] | IC50 [3] | SMILES |
| --- | --- | --- | --- | --- |
| 166 to 168 °C | 0.5 nmol/L | 8 nmol/L | – | N#Cc1ccc2[nH]cc(CCCCNC3COc4ccccc4OC3)c2c1 [EMD 76066, N-(3,4-dihydro-2H-1,5-benzodioxepin-3-yl)-4-(5-cyano-3-indole)butylamine] |
| – | 2 nmol/L | 3 nmol/L | – | Cc1cccc2c1OCC(NCCCCc1c[nH]c3ccc(C#N)cc13)CO2 (stereo not shown) [EMD 87319, 3-{4-(6-methyl-3,4-dihydro-2H-1,5-benzodioxepin-3-ylamino)butyl}indole-5-carbonitrile] |
| – | 0.6 nmol/L | 1 nmol/L | – | COc1cccc2c1OCC(NCCCCc1c[nH]c3ccc(C#N)cc13)CO2 (stereo not shown) [EMD 87326, 3-[4-(6-methoxy-3,4-dihydro-2H-1,5-benzodioxepin-3-ylamino)butyl]indole-5-carbonitrile] |
